# Reference: publication PMC8508980, “Design, Synthesis and Anticancer Profile of New 4-(1H-benzo[d]imidazol-1-yl)pyrimidin-2-amine-Linked Sulfonamide Derivatives with V600EBRAF Inhibitory Effect” (International Journal of Molecular Sciences, 2021)
# Legend:
# Experiment in all cases: NCI 60 cell line screen
# Format in all cases: cell-based
# MALME-3M = details: Homo sapiens, Melanoma, read-out: Percent growth
# Method: (§1) Anticancer profiling over a panel of 60 cancer cell lines was carried out at the National Cancer Institute (NCI), Bethesda, Maryland, USA, https://dtp.cancer.gov/discovery_development/nci-60/methodology.htm (Last visit 22 September 2021), using the standard procedure (detailed procedure is located in the Supplementary Information page 50 s).
# (§2) NCI standard procedure for 60 cell lines assay
# (§3) The human tumor cell lines of the cancer screening panel are grown in RPMI 1640 mediu m containing 5% fetal bovine serum and 2 mM L-glutamine. For a typical screening experiment, cells are inoculated into 96 well microtiter plates in 100 μL at plating densities ranging from 5,000 to 40,000 cells/well depending on the doubling time of individual cell lines. After cell inoculation, the microtiter plates are incubated at 37° C, 5 % CO2, 95 % air and 100 % relative humidity for 24 h prior to addition of experimental drugs.
# (§4) After 24 h, two plates of each cell line are fixed in situ with TCA, to represent a measurement of the cell population for each cell line at the time of drug addition (Tz). Experimental drugs are solubilized in dimethyl sulfoxide at 400-fold the desired final maximum test concentration (10 µM) and stored frozen prior to use. At the time of drug addition, an aliquot of frozen concentrate is thawed and diluted to twice the desired final maximum test concentration with co mp lete medium containing 50 μg/ml gentamicin. Additional four, 10-fold or ½ log serial dilutions are made to provide a total of five drug concentrations plus control. Aliquots of 100 μl of these different drug dilutions are added to the appropriate microtiter wells already containing 100 μl of medium, resulting in the required final drug concentrations.
# (§5) Following drug addition, the plates are incubated for an additional 48 h at 37°C, 5 % CO2, 95 % air, and 100 % relative humidity. For adherent cells, the assay is terminated by the addition of cold TCA. Cells are fixed in situ by the gentle addition of 50 μl of cold 50 % (w/v) TCA (final concentration, 10 % TCA) and incubated for 60 minutes at 4°C. The supernatant is discarded, and the plates are washed five times with tap water and air dried. Sulforhodamine B (SRB) solution (100 μl) at 0.4 % (w/v) in 1 % acetic acid is added to each well, and plates are incubated for 10 minutes at room temperature. After staining, unbound dye is removed by washing five times with 1 % acetic acid and the plates are air dried. Bound stain is subsequently solubilized with 10 mM trizma base, and the absorbance is read on an automated plate reader at a wavelength of 515 nm. For suspension cells, the methodology is the same except that the assay is terminated by fixing settled cells at the bottom of the wells by g ently adding 50 μl of 80 % TCA (final concentration, 16 % TCA). Using the seven absorbance measurements [time zero, (Tz), control growth, (C), and test growth in the presence of drug at the five concentration levels (Ti)], the percentage growth is calculated at each of the drug concentrations levels. Percentage growth inhibition is calculated as:
# (§6) [(Ti-Tz)/(C-Tz)] x 100 for concentrations for which Ti>/=Tz
# (§7) [(Ti-Tz)/Tz] x 100 for concentrations for which Ti<Tz.
# (§8) Three dose response parameters are calculated for each experimental agent. Growth inhibition of […]
# (§9) resulting in a 50% reduction in the net protein increase (as measured by SRB staining) in control cells during the drug incubation. The drug concentration resulting in total growth inhibition […]
# (§10) (TGI) is calculated from Ti = Tz.
# OVCAR-3 = details: Homo sapiens; OVCAR-3, Ovarian Cancer; read-out: Percent growth
# Method: as §1, §2, §3, §4, §5, §6, §7, §8, §9, §10
# 786-0 = details: Homo sapiens; 786-0, Renal Cancer; read-out: Percent growth
# Method: as §1, §2, §3, §4, §5, §6, §7, §8, §9, §10
# UACC-62 = details: Homo sapiens; UACC-62, Melanoma; read-out: Percent growth
# Method: as §1, §2, §3, §4, §5, §6, §7, §8, §9, §10
# MCF7 = details: Homo sapiens; MCF7, Breast Cancer; read-out: Percent growth
# Method: as §1, §2, §3, §4, §5, §6, §7, §8, §9, §10
# A498 = details: Homo sapiens; A498, Renal Cancer; read-out: Percent growth
# Method: as §1, §2, §3, §4, §5, §6, §7, §8, §9, §10
# A549/ATCC = details: Homo sapiens, Non-Small Cell Lung Cancer, read-out: Percent growth
# Method: as §1, §2, §3, §4, §5, §6, §7, §8, §9, §10
# TK-10 = details: Homo sapiens; TK-10, Renal Cancer; read-out: Percent growth
# Method: as §1, §2, §3, §4, §5, §6, §7, §8, §9, §10
# IGROV1 = details: Homo sapiens, IGROV-1; IGROV1, Ovarian Cancer; read-out: Percent growth
# Method: as §1, §2, §3, §4, §5, §6, §7, §8, §9, §10
# CCRF-CEM = details: Homo sapiens, Leukemia, read-out: Percent growth
# Method: as §1, §2, §3, §4, §5, §6, §7, §8, §9, §10
# HS 578T = details: Homo sapiens, Breast Cancer, read-out: Percent growth
# Method: as §1, §2, §3, §4, §5, §6, §7, §8, §9, §10
# LOX IMVI = details: Homo sapiens, Melanoma, read-out: Percent growth
# Method: as §1, §2, §3, §4, §5, §6, §7, §8, §9, §10
# SK-OV-3 = details: Homo sapiens; SK-OV-3, Ovarian Cancer; read-out: Percent growth
# Method: as §1, §2, §3, §4, §5, §6, §7, §8, §9, §10
# HCC-2998 = details: Homo sapiens; HCC-2998, Colon Cancer; read-out: Percent growth
# Method: as §1, §2, §3, §4, §5, §6, §7, §8, §9, §10
# SNB-19 = details: Homo sapiens; SNB-19, CNS-Cancer; read-out: Percent growth
# Method: as §1, §2, §3, §4, §5, §6, §7, §8, §9, §10
# HL-60(TB) = details: Homo sapiens, Leukemia, read-out: Percent growth
# Method: as §1, §2, §3, §4, §5, §6, §7, §8, §9, §10
# HOP-62 = details: Homo sapiens; HOP-62, Non-Small Cell Lung Cancer; read-out: Percent growth
# Method: as §1, §2, §3, §4, §5, §6, §7, §8, §9, §10
# ACHN = details: Homo sapiens, Renal Cancer, read-out: Percent growth
# Method: as §1, §2, §3, §4, §5, §6, §7, §8, §9, §10
# MDA-MB-231/ATCC = details: Homo sapiens, Breast Cancer, read-out: Percent growth
# Method: as §1, §2, §3, §4, §5, §6, §7, §8, §9, §10
# COLO 205 = details: Homo sapiens; COLO 205, Colon Cancer; read-out: Percent growth
# Method: as §1, §2, §3, §4, §5, §6, §7, §8, §9, §10
# DU-145 = details: Homo sapiens; DU-145, Prostate Cancer; read-out: Percent growth
# Method: as §1, §2, §3, §4, §5, §6, §7, §8, §9, §10
# SK-MEL-28 = details: Homo sapiens; SK-MEL-28, Melanoma; read-out: Percent growth
# Method: as §1, §2, §3, §4, §5, §6, §7, §8, §9, §10
# SN12C = details: Homo sapiens, Renal Cancer, read-out: Percent growth
# Method: as §1, §2, §3, §4, §5, §6, §7, §8, §9, §10
Compound,activity at 10 µM (MALME-3M) [%],activity at 10 µM (OVCAR-3) [%],activity at 10 µM (786-0) [%],activity at 10 µM (UACC-62) [%],activity at 10 µM (MCF7) [%],activity at 10 µM (A498) [%],activity at 10 µM (A549/ATCC) [%],activity at 10 µM (TK-10) [%],activity at 10 µM (IGROV1) [%],activity at 10 µM (CCRF-CEM) [%],activity at 10 µM (HS 578T) [%],activity at 10 µM (LOX IMVI) [%],activity at 10 µM (SK-OV-3) [%],activity at 10 µM (HCC-2998) [%],activity at 10 µM (SNB-19) [%],activity at 10 µM (HL-60(TB)) [%],activity at 10 µM (HOP-62) [%],activity at 10 µM (ACHN) [%],activity at 10 µM (MDA-MB-231/ATCC) [%],activity at 10 µM (COLO 205) [%],also measured
"COc1ccc(S(=O)(=O)NCCCNc2nccc(-n3cnc4ccccc43)n2)cc1 [12m, N-(3-((4-(1H-benzo [d]imidazol-1-yl)pyrimidin-2-yl)amino)propyl)-4-methoxy benzenesulfonamide]",107,105,95.9,76.3,85.1,81.9,106,103,91.5,91.4,84.8,93.4,96.2,111,100,110,94.8,88.2,84.1,108,activity at 10 µM (DU-145): 100%; activity at 10 µM (SK-MEL-28): 106%; activity at 10 µM (SN12C): 92.4%
"O=S(=O)(NCCCNc1nccc(-n2cnc3ccccc32)n1)c1ccc(Cl)cc1 [12j, N-(3-((4-(1H-benzo [d]imidazol-1-yl)pyrimidin-2-yl)amino)propyl)-4-chloro benzenesulfonamide]",103,107,103,81.5,89,73,99,104,114,91.7,105,107,117,108,104,108,101,94.1,89.4,110,activity at 10 µM (DU-145): 100%; activity at 10 µM (SK-MEL-28): 108%; activity at 10 µM (SN12C): 91.7%
